Consider ten compounds from patent US20240360157A1, “TYK2 INHIBITORS” (BIOGEN MA INC., priority 2021, published 2024).

A word on the IC50: it is the concentration needed to halve the response being measured.

What all share (type): biochemical
The target of assay [1] is human JAK2 catalytic kinase (JH1) domain (Homo sapiens (Human), UniProt O60674). Nature of the assay: ADP-Glo Kinase Assay, recombinant JAK2 catalytic kinase (JH1) domain. Particulars: recombinant JH1 domain 0.2 nM, 15 μM ATP, JAK3-974 peptide, mean, read-out: JAK2 biochem IC50 (nM) Mean. The procedure:
(§1) Compounds of the disclosure were assessed for their ability to inhibit TYK2, JAK1, JAK2, and JAK3 activity. The inhibitory properties of the compounds of the disclosure described herein can be evidenced by testing in any one of the following protocols.
(§2) The kinase activity of recombinantly generated catalytic kinase (also known as JH1) domain of human JAK1, JAK2, JAK3 and TYK2 were evaluated in a plate-based assay using the ADP-Glo™ Kinase Assay platform. Specifically, 4 nM of recombinant JAK1 kinase domain is used to phosphorylate 50 μM of a JAK3-342 (sequence ALVDGYFRLTT) peptide in the presence of 35 μM ATP. Catalytic activities of recombinant JAK2, JAK3 and TYK2 kinase domain (0.2, 0.3 and 2 nM, respectively) are evaluated by the phosphorylation status of the JAK3-974 (50 μM; sequence LPLDKDYYVVR) peptide with the addition of ATP (15, 4 and 10 μM, respectively). The reactions proceed for 100 minutes and the catalytic activity is quantified by first depleting the unused ATP, converting the hydrolyzed ADP into ATP to generate luminescence in a luciferase reaction; which is the basis of the ADP-Glo platform. Compounds are tested at either 10 μM or 1 μM top concentration, 11 points of 3-fold dilution. The data is normalized and the percent activity versus log concentration of compound is fitted with a 4-parameter logistic model to generate a curve and an IC50 value.

Assay [2] has as its target human JAK1 catalytic kinase (JH1) domain (Homo sapiens (Human), UniProt P23458). Kind of assay: ADP-Glo Kinase Assay, recombinant JAK1 catalytic kinase (JH1) domain. Particulars: recombinant JH1 domain 4 nM, 35 μM ATP, JAK3-342 peptide, mean, read-out: JAK1 biochem IC50 (nM) Mean. As to the method:
as §1, §2
On the technique in general: ADP-Glo turns the ADP formed in a reaction into a luminescent signal.

Assay [3] concerns the target human JAK3 catalytic kinase (JH1) domain (Homo sapiens (Human), UniProt P52333). Kind of assay: ADP-Glo Kinase Assay, recombinant JAK3 catalytic kinase (JH1) domain. Particulars: recombinant JH1 domain 0.3 nM, 4 μM ATP, JAK3-974 peptide, mean, read-out: JAK3 biochem IC50 (nM) Mean. The procedure: as §1, §2
In assay [4] the target is human TYK2 catalytic kinase (JH1) domain (Homo sapiens (Human), UniProt P29597). Nature of the assay: ADP-Glo Kinase Assay, recombinant TYK2 catalytic kinase (JH1) domain. Particulars: recombinant JH1 domain 2 nM, 10 μM ATP, JAK3-974 peptide, mean, read-out: TYK2 biochem IC50 (nM) Mean. As to the method: as §1, §2
Sequence of human TYK2 catalytic kinase (JH1) domain (P29597 897-1176): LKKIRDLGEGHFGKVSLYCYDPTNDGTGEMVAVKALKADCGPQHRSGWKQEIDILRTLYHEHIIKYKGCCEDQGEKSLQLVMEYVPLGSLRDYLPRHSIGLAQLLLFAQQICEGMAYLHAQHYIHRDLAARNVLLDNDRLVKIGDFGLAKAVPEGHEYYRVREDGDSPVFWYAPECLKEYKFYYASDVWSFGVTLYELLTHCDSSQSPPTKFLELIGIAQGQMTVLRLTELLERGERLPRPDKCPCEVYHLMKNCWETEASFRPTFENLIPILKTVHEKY

Sequence of human JAK1 catalytic kinase (JH1) domain (P23458 875-1153): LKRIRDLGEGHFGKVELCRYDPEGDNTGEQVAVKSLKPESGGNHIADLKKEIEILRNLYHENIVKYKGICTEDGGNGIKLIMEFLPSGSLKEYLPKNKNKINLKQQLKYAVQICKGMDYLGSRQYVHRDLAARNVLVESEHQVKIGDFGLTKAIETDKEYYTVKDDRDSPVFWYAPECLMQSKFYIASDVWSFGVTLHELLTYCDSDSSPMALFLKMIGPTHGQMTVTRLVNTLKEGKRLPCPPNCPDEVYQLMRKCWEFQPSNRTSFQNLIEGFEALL
Sequence of human JAK2 catalytic kinase (JH1) domain (O60674 849-1124): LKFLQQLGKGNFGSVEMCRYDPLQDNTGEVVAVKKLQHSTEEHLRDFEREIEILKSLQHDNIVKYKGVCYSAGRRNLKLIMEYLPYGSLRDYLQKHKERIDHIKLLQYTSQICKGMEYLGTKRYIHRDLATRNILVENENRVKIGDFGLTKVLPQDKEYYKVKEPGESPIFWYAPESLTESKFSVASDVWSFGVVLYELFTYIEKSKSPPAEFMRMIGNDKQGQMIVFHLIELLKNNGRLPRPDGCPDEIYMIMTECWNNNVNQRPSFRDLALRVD
Sequence of human JAK3 catalytic kinase (JH1) domain (P52333 822-1111): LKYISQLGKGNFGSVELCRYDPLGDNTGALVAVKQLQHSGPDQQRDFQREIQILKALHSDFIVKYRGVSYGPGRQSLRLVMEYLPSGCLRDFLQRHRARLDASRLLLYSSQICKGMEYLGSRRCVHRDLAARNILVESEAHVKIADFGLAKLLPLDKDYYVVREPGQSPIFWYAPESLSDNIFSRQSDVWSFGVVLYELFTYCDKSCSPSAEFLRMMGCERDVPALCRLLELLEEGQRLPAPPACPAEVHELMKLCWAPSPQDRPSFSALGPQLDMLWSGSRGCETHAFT

`Cn1cc(-c2cc3c(N4CC5CCC(C4)N5C(=O)C4CC(F)C4)ncnn3c2)cn1` (stereo not shown) [Example 69, (3-fluorocyclobutyl)(3-(6-(1-methyl-1H-pyrazol-4-yl)pyrrolo[2,1-f][1,2,4]triazin-4-yl)-3,8-diazabicyclo[3.2.1]octan-8-yl)methanone]: the IC50 in assay [1] came to 10000 nM; in assay [2], 6660 nM; in assay [3], 9720 nM; in assay [4] it was 694 nM.

Consider `CNc1cncc(-c2cc3c(N4CC5CCC(C4)N5C(=O)[C@@H]4C[C@H]4F)ccnn3c2)n1` [Example 127, ((1S,2R)-2-fluorocyclopropyl)(3-(6-(6-(methylamino)pyrazin-2-yl)pyrrolo[1,2-b]pyridazin-4-yl)-3,8-diazabicyclo[3.2.1]octan-8-yl)methanone], for which the IC50 was 300 nM in assay [1], 211 nM in assay [2], 3140 nM in assay [3] and 18 nM in assay [4].

As to `Cn1ncc(-c2cc3c(N4CC5CCC(C4)N5C(=O)C4(F)CC4)ccnc3[nH]2)c1F` [Example 242, (3-(2-(5-fluoro-1-methyl-1H-pyrazol-4-yl)-1H-pyrrolo[2,3-b]pyridin-4-yl)-3,8-diazabicyclo[3.2.1]octan-8-yl)(1-fluorocyclopropyl)methanone], the IC50 in assay [1] was 690 nM; in assay [2] it was 362 nM; in assay [3], 296 nM; in assay [4] it was 113 nM.

Consider `O=C(C1CCC1)N1C2CCC1CN(c1ncnn3cc(-c4cnn(C(F)F)c4)cc13)C2` [Example 51, cyclobutyl(3-(6-(1-(difluoromethyl)-1H-pyrazol-4-yl)pyrrolo[2,1-f][1,2,4]triazin-4-yl)-3,8-diazabicyclo[3.2.1]octan-8-yl)methanone], for which the IC50 in assay [1] turned out to be 9130 nM; in assay [2] it was 2830 nM; in assay [3] it was 7870 nM; in assay [4] it was 407 nM.

As for `O=C([C@@H]1C[C@H]1F)N1C2CCC1CN(c1ccnc3[nH]c(-c4ccc(C(F)F)nc4)nc13)C2` [Example 206], the IC50 is 35 nM in assay [1], 24 nM in assay [2], 744 nM in assay [3] and 6.8 nM in assay [4].

Consider `O=C([C@@H]1C[C@H]1F)N1C2CCC1CN(c1ccnn3cc(-c4ccc(F)nc4)cc13)C2` [Example 169], for which the IC50 in assay [1] was 49 nM; in assay [2] it was 47 nM; in assay [3], 288 nM; in assay [4], 1.8 nM.

Regarding `COc1ccc(-c2cc3c(N4CC5CCC(C4)N5C(=O)[C@@H]4C[C@H]4F)ccnn3c2)cn1` [Example 114, ((1S,2R)-2-fluorocyclopropyl)(3-(6-(6-methoxypyridin-3-yl)pyrrolo[1,2-b]pyridazin-4-yl)-3,8-diazabicyclo[3.2.1]octan-8-yl)methanone], the IC50 in assay [1] came to 47 nM; in assay [2], 54 nM; in assay [3], 684 nM; in assay [4], 3.8 nM.

Turning to `O=C([C@@H]1C[C@H]1F)N1C2CCC1CN(c1ccnn3cc(-c4ncc(F)cn4)cc13)C2` [Example 108, ((1S,2R)-2-fluorocyclopropyl)(3-(6-(5-fluoropyrimidin-2-yl)pyrrolo[1,2-b]pyridazin-4-yl)-3,8-diazabicyclo[3.2.1]octan-8-yl)methanone], the concentration for half-maximal inhibition (IC50) is 1050 nM in assay [1], 909 nM in assay [2], 3920 nM in assay [3] and 48 nM in assay [4].

For the compound `O=C(C1CC1)N1C2CCC1CN(c1ncnn3cc(-c4cnn(C(F)F)c4)cc13)C2` [Example 144], the half-inhibitory concentration (IC50) was found to be 10000 nM in assay [1], 9320 nM in assay [2], 10000 nM in assay [3] and 622 nM in assay [4].

Take `Cn1cc(-c2cc3c(N4CC5CCC(C4)N5C(=O)C4(F)CC4)ccnc3[nH]2)cn1` [Example 240, (1-fluorocyclopropyl)(3-(2-(1-methyl-1H-pyrazol-4-yl)-1H-pyrrolo[2,3-b]pyridin-4-yl)-3,8-diazabicyclo[3.2.1]octan-8-yl)methanone]: the half-maximal inhibitory concentration (IC50) in assay [1] is 42 nM; in assay [2], 44 nM; in assay [3], 35 nM; in assay [4], 4.4 nM.
